ChEMBL document CHEMBL1201862, “PubChem BioAssay data set” (2004)
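Following 48 hours of exposure in 96-well plates, responses at five concentrations were used to interpolate endpoints linearly. Abbreviation: GI50, concentration required for 50% inhibition of growth.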 Activity calls are given as the source filed them. Rule as the data show it: active = GI50 up to about 1.1 µM and inactive = higher.

Assays:
Test in all cases: inhibition of tumour cell growth, NCI panel, 48 h
NCI-H23 = tested on: NCI-H23
M14 = tested on: M14
LOX IMVI = tested on: LOX IMVI
CCRF-CEM = tested on: CCRF-CEM
HCT-116 = tested on: HCT-116
OVCAR-5 = tested on: OVCAR-5
NCI-H522 = tested on: NCI-H522
HOP-92 = tested on: HOP-92
NCI/ADR-RES = tested on: NCI/ADR-RES
SNB-19 = tested on: SNB-19
BT-549 = tested on: BT-549
T47D = tested on: T47D
SK-MEL-28 = tested on: SK-MEL-28
786-0 = tested on: 786-0
SK-MEL-5 = tested on: SK-MEL-5
PC-3 = tested on: PC-3
EKVX = tested on: EKVX
SF-268 = tested on: SF-268
SK-OV-3 = tested on: SK-OV-3
DU-145 = tested on: DU-145

Measured: GI50

CN(C)c1ccc(/C=N/n2c(-c3ccccc3)nc3ccccc3c2=O)cc1
inactive: NCI-H23 28.3 µM | M14 79.6 µM | LOX IMVI 80.2 µM | CCRF-CEM 46.8 µM | HCT-116 50.6 µM | OVCAR-5 > 100 µM | NCI-H522 49.3 µM | HOP-92 90.8 µM | NCI/ADR-RES 21.8 µM | SNB-19 40.8 µM | BT-549 65.8 µM | T47D 15 µM | SK-MEL-28 > 100 µM | 786-0 > 100 µM | SK-MEL-5 33.3 µM | PC-3 24.5 µM | EKVX > 100 µM | SF-268 44 µM | SK-OV-3 80.5 µM | DU-145 > 100 µM

COC1/C=C/C(C)C(C(C)C(OC)C(C)CCC(=O)C(C)C(C/C=C/N(C)C=O)OC)OC(=O)/C=C/C=C(\C)CC(OC)C(OC)C2=CC(=O)O[C@@H](C(C)C(OC)CC(OC)/C=C/C(C)C(O)C1)[C@H]2O (stereo not given in full)
active: NCI-H23 0.145 µM | M14 0.14 µM | LOX IMVI 0.0145 µM | CCRF-CEM 0.039 µM | HCT-116 < 0.0222 µM | OVCAR-5 0.163 µM | NCI-H522 0.119 µM | HOP-92 0.0284 µM | NCI/ADR-RES 0.226 µM | SNB-19 0.171 µM | BT-549 0.117 µM | T47D 0.208 µM | SK-MEL-28 0.192 µM | 786-0 0.147 µM | SK-MEL-5 0.0904 µM | PC-3 0.0855 µM | EKVX 0.154 µM | SF-268 0.129 µM | SK-OV-3 0.122 µM | DU-145 0.373 µM

Cc1cc(NC(=O)C(=O)Cc2nc3ccccc3s2)ccc1Cl
inactive: NCI-H23 > 100 µM | M14 > 100 µM | LOX IMVI > 100 µM | CCRF-CEM > 100 µM | HCT-116 > 100 µM | OVCAR-5 > 100 µM | NCI-H522 > 100 µM | HOP-92 > 100 µM | NCI/ADR-RES > 100 µM | SNB-19 > 100 µM | BT-549 > 100 µM | T47D > 100 µM | SK-MEL-28 > 100 µM | 786-0 > 100 µM | SK-MEL-5 > 100 µM | PC-3 > 100 µM | EKVX > 100 µM | SF-268 > 100 µM | SK-OV-3 > 100 µM | DU-145 > 100 µM

N#Cc1ccccc1NC(=O)C(O)C(O)C(O)C(O)C=O (stereo not given)
inactive: NCI-H23 > 100 µM | M14 > 100 µM | LOX IMVI > 100 µM | CCRF-CEM > 100 µM | HCT-116 > 100 µM | OVCAR-5 > 100 µM | NCI-H522 > 100 µM | HOP-92 > 100 µM | NCI/ADR-RES > 100 µM | SNB-19 > 100 µM | BT-549 > 100 µM | T47D > 100 µM | SK-MEL-28 > 100 µM | 786-0 > 100 µM | SK-MEL-5 > 100 µM | PC-3 > 100 µM | EKVX > 100 µM | SF-268 > 100 µM | SK-OV-3 > 100 µM | DU-145 > 100 µM

O=C(O)CCCCCNC(=O)CCC(CN(CC(=O)OCc1ccccc1)CC(=O)OCc1ccccc1)N(CC(=O)OCc1ccccc1)CC(=O)OCc1ccccc1 (stereo not given)
inactive: NCI-H23 18.4 µM | M14 17.5 µM | LOX IMVI 19.2 µM | CCRF-CEM 16 µM | HCT-116 17.1 µM | OVCAR-5 18.2 µM | NCI-H522 19.2 µM | HOP-92 13.3 µM | NCI/ADR-RES 20.3 µM | SNB-19 17.9 µM | BT-549 18.9 µM | T47D 17.2 µM | SK-MEL-28 19 µM | 786-0 18 µM | SK-MEL-5 17.3 µM | PC-3 17 µM | EKVX 22 µM | SF-268 18.7 µM | SK-OV-3 13.3 µM | DU-145 19.5 µM

COc1cc(C2c3cc4c(cc3OC(NNc3ccccc3)C2C)OCO4)cc(OC)c1O (stereo not given)
inactive: NCI-H23 5.6 µM | HCT-116 1.52 µM | OVCAR-5 3.21 µM | HOP-92 9.2 µM | SNB-19 6.64 µM | BT-549 11.4 µM | SK-MEL-28 4.22 µM | 786-0 3.18 µM | SK-MEL-5 1.3 µM | EKVX 7.8 µM | SF-268 2.58 µM | SK-OV-3 3.79 µM | DU-145 2.62 µM
active: M14 0.255 µM | LOX IMVI 0.049 µM | CCRF-CEM 0.463 µM | NCI-H522 0.561 µM | NCI/ADR-RES 1.07 µM | T47D 0.757 µM | PC-3 0.815 µM

CC(=O)NC1COC(COC(=O)CCCCCCCCCCNC(=O)c2ccc([N+](=O)[O-])c3c(=O)c4ccccc4[nH]c23)C(O)C1OC(C)C(=O)NC(C(=O)NC(CCC(N)=O)C(=O)OCc1ccccc1)C(C)C (stereo not given)
inactive: NCI-H23 11.4 µM | M14 35 µM | LOX IMVI 11.5 µM | CCRF-CEM 20.8 µM | HCT-116 12.2 µM | OVCAR-5 36 µM | NCI-H522 12.3 µM | HOP-92 8.05 µM | NCI/ADR-RES 32.9 µM | SNB-19 6.03 µM | BT-549 48.8 µM | T47D 2.25 µM | SK-MEL-28 11.9 µM | 786-0 15 µM | SK-MEL-5 29.6 µM | PC-3 8.05 µM | EKVX 8.69 µM | SF-268 7.36 µM | SK-OV-3 39.2 µM | DU-145 5.79 µM

Cc1c2ccc3ccccc3c2c[n+]2ccccc12
inactive: NCI-H23 4.91 µM | M14 15.8 µM | LOX IMVI 42.9 µM | CCRF-CEM 6.59 µM | HCT-116 17.1 µM | OVCAR-5 61.9 µM | NCI-H522 3.41 µM | HOP-92 13.5 µM | NCI/ADR-RES 55.2 µM | SNB-19 2.64 µM | BT-549 2.96 µM | T47D 1.36 µM | SK-MEL-28 9.55 µM | 786-0 2.37 µM | SK-MEL-5 6.79 µM | PC-3 26.7 µM | EKVX 4.91 µM | SF-268 1.36 µM | SK-OV-3 16.9 µM | DU-145 11.4 µM

CC1=NOC(C)(O)/C1=N/O (stereo not given)
inactive: NCI-H23 > 100 µM | M14 > 100 µM | LOX IMVI > 100 µM | CCRF-CEM > 100 µM | HCT-116 > 100 µM | OVCAR-5 > 100 µM | NCI-H522 > 100 µM | HOP-92 > 100 µM | NCI/ADR-RES > 100 µM | SNB-19 > 100 µM | BT-549 > 100 µM | T47D > 100 µM | SK-MEL-28 > 100 µM | 786-0 > 100 µM | SK-MEL-5 > 100 µM | PC-3 > 100 µM | EKVX > 100 µM | SF-268 > 100 µM | SK-OV-3 > 100 µM | DU-145 > 100 µM

CC1=NC(=Cc2ccccc2O)C(=O)N1n1c(-c2ccccc2)nc2ccccc2c1=O
inactive: NCI-H23 32.8 µM | M14 61.1 µM | LOX IMVI 33 µM | CCRF-CEM 26.6 µM | HCT-116 26.5 µM | OVCAR-5 40.5 µM | NCI-H522 62.8 µM | HOP-92 31.9 µM | NCI/ADR-RES 33.3 µM | SNB-19 65.5 µM | BT-549 57.7 µM | T47D 21.5 µM | SK-MEL-28 36.9 µM | 786-0 45.5 µM | SK-MEL-5 23.8 µM | PC-3 30.3 µM | EKVX 34.9 µM | SF-268 33.7 µM | SK-OV-3 33.3 µM | DU-145 29.1 µM

O=[N+]([O-])C(Cl)=C/C(=C(\Cl)SCc1ccccc1)[N+](=O)[O-]
inactive: NCI-H23 37.5 µM | M14 20 µM | LOX IMVI 16.5 µM | CCRF-CEM 3.24 µM | HCT-116 18.4 µM | OVCAR-5 23.7 µM | NCI-H522 20.7 µM | HOP-92 15.4 µM | NCI/ADR-RES 36.7 µM | SNB-19 38.4 µM | BT-549 14.7 µM | T47D 16.9 µM | SK-MEL-28 26.3 µM | 786-0 30.5 µM | SK-MEL-5 20.8 µM | PC-3 22.1 µM | EKVX 17.7 µM | SF-268 28.6 µM | SK-OV-3 59.7 µM | DU-145 31.4 µM

Cc1ccc([N+](=O)[O-])cc1S(=O)(=O)Nc1ccc(C2=NOC(c3ccco3)C2)cc1 (stereo not given)
inactive: NCI-H23 16.5 µM | M14 15.3 µM | LOX IMVI 17.3 µM | CCRF-CEM 18 µM | HCT-116 16.4 µM | OVCAR-5 22.9 µM | NCI-H522 10.7 µM | HOP-92 29.2 µM | NCI/ADR-RES 14.5 µM | SNB-19 18.7 µM | BT-549 18 µM | T47D 22.8 µM | SK-MEL-28 18.2 µM | 786-0 18.2 µM | SK-MEL-5 13.2 µM | PC-3 15.7 µM | EKVX 24.2 µM | SF-268 26.1 µM | SK-OV-3 28 µM | DU-145 20.2 µM

CCC1C2Cc3ccc(O)cc3C1(CC)CCN2C (stereo not given)
inactive: NCI-H23 > 100 µM | M14 > 100 µM | LOX IMVI > 100 µM | CCRF-CEM > 100 µM | HCT-116 > 100 µM | OVCAR-5 > 100 µM | NCI-H522 > 100 µM | HOP-92 > 100 µM | NCI/ADR-RES > 100 µM | SNB-19 > 100 µM | BT-549 > 100 µM | T47D > 100 µM | SK-MEL-28 > 100 µM | 786-0 > 100 µM | SK-MEL-5 > 100 µM | PC-3 > 100 µM | EKVX > 100 µM | SF-268 > 100 µM | SK-OV-3 > 100 µM | DU-145 > 100 µM

O=C1CSSCC(=O)Nc2ccccc2N1
inactive: NCI-H23 > 100 µM | M14 > 100 µM | LOX IMVI > 100 µM | CCRF-CEM > 100 µM | HCT-116 > 100 µM | OVCAR-5 > 100 µM | NCI-H522 > 100 µM | HOP-92 > 100 µM | NCI/ADR-RES > 100 µM | SNB-19 > 100 µM | BT-549 > 100 µM | T47D > 100 µM | SK-MEL-28 > 100 µM | 786-0 > 100 µM | SK-MEL-5 > 100 µM | PC-3 > 100 µM | EKVX > 100 µM | SF-268 > 100 µM | SK-OV-3 > 100 µM | DU-145 > 100 µM
